Laboratory results taken from US5324725A, “7-fused 2-(piperazinoalkyl) indole derivatives, intermediates and compositions thereof” (Kali-Chemie Pharma GmbH, priority 1991, dated 1994).

Tests used:
5-lipoxygenase = biological target: T1, 5-lipoxygenase (Mus musculus, UniProt P48999); test: 5-lipoxygenase inhibition: release of LTC4 from zymosan-stimulated mouse peritoneal macrophage cells; assay type: cell-based; conditions: 10^-5 mol/l, read-out: In vitro % inhibition effect on the release of LTC4
T1 construct: A cell suspension containing peritoneal cells of male mice 8-10 weeks old was obtained; endogenous in cells; host or cells: mouse peritoneal macrophages (male mice 8-10 weeks old), zymosan-stimulated
T1 sequence (P48999 1-674): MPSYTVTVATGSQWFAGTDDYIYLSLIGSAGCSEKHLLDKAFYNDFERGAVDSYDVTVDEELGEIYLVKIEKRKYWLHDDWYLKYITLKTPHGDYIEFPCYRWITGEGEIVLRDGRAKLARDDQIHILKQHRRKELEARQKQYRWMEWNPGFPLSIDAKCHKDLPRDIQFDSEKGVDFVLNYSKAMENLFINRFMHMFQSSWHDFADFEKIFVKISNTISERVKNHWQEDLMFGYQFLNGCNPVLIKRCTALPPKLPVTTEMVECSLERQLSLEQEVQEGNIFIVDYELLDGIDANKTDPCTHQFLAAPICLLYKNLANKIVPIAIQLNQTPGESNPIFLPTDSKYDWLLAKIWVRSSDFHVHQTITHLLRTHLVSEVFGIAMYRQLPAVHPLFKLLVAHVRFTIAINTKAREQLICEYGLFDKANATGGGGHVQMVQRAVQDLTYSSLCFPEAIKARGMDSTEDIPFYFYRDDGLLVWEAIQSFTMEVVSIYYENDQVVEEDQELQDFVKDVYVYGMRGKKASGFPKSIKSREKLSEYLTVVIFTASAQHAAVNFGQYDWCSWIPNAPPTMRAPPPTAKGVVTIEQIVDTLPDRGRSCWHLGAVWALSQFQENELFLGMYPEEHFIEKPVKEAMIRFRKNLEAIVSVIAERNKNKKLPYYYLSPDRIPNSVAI
Source text: (§1) 5. In vitro determination of cyclooxygenase inhibition and 5-lipoxygenase inhibition.
(§2) After activation of the cell, arachidonic acid contained in cell membranes is metabolized in two ways. Leukotrienes, inter alia leukotriene C4, are formed under the action of the enzyme 5-lipoxygenase (5-LO), and prostanoids are formed under the action of the enzyme cyclooxygenase (CO). In in vitro systems, the metabolites are secreted from the cell.
(§3) To investigate the cyclooxygenase-inhibiting and the 5-lipoxygenase-inhibiting properties, the inhibitory effect of the test substances on the biosynthesis of the arachidonic acid derivatives leukotriene C4 (LTC4) and 6-ketoprostaglandin F1 α (6-keto-PGF1 α) is determined in vitro on mouse peritoneal macrophage cells. This was accomplished by determining the LTC4 and 6-keto-PGF1 α contents in a culture medium of mouse peritoneal macrophage cells by zymosan stimulation as described by Scott et al. (J. Exp. Med. 152 (1980), 324-335) and by Fradin et al. (Prostaglandins, 33 (1987), 579-589).
(§4) A cell suspension containing peritoneal cells of male mice 8-10 weeks old was obtained in a known manner. A commercially available cell culture solution (RPMI 1640 from Messrs. Gibco) was used to which heparin (I0 international units/ml) and antibiotics were added according to the recipe of Bonney et al. (Biochem. J. 176 (1978) 422-433). The cell suspension was adjusted to a cell concentration of 10^6 cells per ml and distributed uniformly on titer plates containing […] (wells). These were kept for two hours in a humidified incubator filled with air enriched with 7% CO2. Cells not adhering to the titer cell walls were then removed by washing. The remaining macrophage cells adhering to the walls were incubated for about 12 hours in a suspension medium to which 0.1% bovine serum albumin (BSA) were added. The suspension medium was then replaced by a Hanks balanced salt solution (HBSS) containing 10 mM Hepes (hydroxyethyl-piperazinoethanesulfonic acid), to which a 0.1% strength solution of the test substances in aqueous, 1% strength dimethylformamide or only the solvent had been added. After 15 minutes the arachidonic acid metabolism was stimulated by adding 10 particles of zymosan (=glycoproteinmixture, isolated from cell walls of beer yeast, Saccharomyces cerevisiae, manufactured by Sigma Chemical Co., Munich) per titer cell. After 2 hours, samples of each of the supernatant liquids were investigated for their 6-keto-PGF1 α and LTC4 contents by means of an enzyme immunoassay (EIA) carried out by the method of Pradelles et al. (Analytical Chem. 57 (1985), 1170-1173). The determination of LTC4 and the determination of 6-keto-PGF1 α were each carried out in comparison with a comparative scale on suitable dilutions of the samples (1:50 to 1:250 for the LTC4 determination and 1:250 to 1:1250 for the 6-keto-PGF1 α determination). To determine the inhibitory effect of a 10^-5 molar concentration of the compounds, the amount of reference eicosanoids was determined and the inhibitory effect was calculated from this in % inhibition compared to the measurements of the zymosan controls.

cyclooxygenase = biological target: T2, cyclooxygenase (Mus musculus, UniProt P22437); test: Cyclooxygenase inhibition: release of 6-keto-PGF1 α from zymosan-stimulated mouse peritoneal macrophage cells; assay type: cell-based; conditions: 10^-5 mol/l, read-out: In vitro % inhibition effect on the release of 6-keto-PGF1 α
T2 construct: A cell suspension containing peritoneal cells of male mice 8-10 weeks old was obtained; endogenous in cells; host or cells: mouse peritoneal macrophages (male mice 8-10 weeks old), zymosan-stimulated
T2 sequence (P22437 27-602): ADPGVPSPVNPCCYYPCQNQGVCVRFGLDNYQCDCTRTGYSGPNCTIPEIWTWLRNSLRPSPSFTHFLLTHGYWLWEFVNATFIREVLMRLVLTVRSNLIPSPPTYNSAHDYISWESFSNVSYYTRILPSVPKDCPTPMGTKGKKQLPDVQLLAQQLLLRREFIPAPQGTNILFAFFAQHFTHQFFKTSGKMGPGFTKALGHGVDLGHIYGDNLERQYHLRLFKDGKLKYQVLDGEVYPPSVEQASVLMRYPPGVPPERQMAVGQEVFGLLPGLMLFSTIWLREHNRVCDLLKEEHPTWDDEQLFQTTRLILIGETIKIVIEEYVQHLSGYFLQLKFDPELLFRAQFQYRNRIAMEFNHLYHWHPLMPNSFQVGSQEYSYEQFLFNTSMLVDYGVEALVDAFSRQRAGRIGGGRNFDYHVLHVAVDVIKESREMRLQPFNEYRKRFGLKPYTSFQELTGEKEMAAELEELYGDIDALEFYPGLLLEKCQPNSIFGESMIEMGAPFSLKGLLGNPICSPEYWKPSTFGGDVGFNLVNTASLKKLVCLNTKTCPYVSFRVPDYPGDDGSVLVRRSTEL
Source text: as §1, §2, §3, §4

Row | inhibition at 10 µM (5-lipoxygenase) [%] | inhibition at 10 µM (cyclooxygenase) [%] | SMILES
1 | 56 | 49 | COc1ccc(-c2c(CCN3CCN(c4cc(C)ccn4)CC3)c3cccc4c3n2CCC4)cc1 [Example 7, 2-(4-methoxy-phenyl)-1-{2-[4-(4-methylpyridin-2-yl)piperazin-1-yl]ethyl}-5,6-dihydro-4H-pyrrolo[3,2,1-ij]quinoline]
2 | 39 | 12 | CNc1cc2c3c(c1)c(CCN1CCN(c4cc(C)ccn4)CC1)c(C)n3CCC2 [Example 80]
3 | 23 | 20 | Cc1ccnc(N2CCN(CCc3c(C)n4c5c(cccc35)CCC4C3CCCCC3)CC2)c1 (centres unmarked) [Example 87]
4 | 99 | 74 | Cc1ccnc(N2CCN(CCc3c(-c4ccc(O)cc4)n4c5c(cccc35)CCC4)CC2)c1 [Example 8, 2-(4-hydroxyphenyl)-1-{2-[4-(4-methylpyridin-2-yl)piperazin-1-yl]ethyl}-5,6-dihydro-4H-pyrrolo[3,2,1-ij]quinoline]
5 | 33 | 72 | Cc1ccnc(N2CCN(CCc3c(C)n4c5c(cc(C(=O)c6ccccc6)cc35)CCC4)CC2)c1 [Example 66]
6 | 81 | 54 | Cc1ccnc(N2CCN(CCc3c(C)n4c5c(ccc(C(=O)C(C)C)c35)SCC4)CC2)c1 [Example 91]
7 | 98 | 38 | CCCCC1CCc2cc(OC)cc3c(CCN4CCN(c5cc(C)ccn5)CC4)c(C)n1c23 (centres unmarked) [Example 63]
8 | 89 | 52 | COc1ccc(C2CCc3cc(OC)cc4c(CCN5CCN(c6cc(C)ccn6)CC5)c(C)n2c34)cc1 (centres unmarked) [Example 65]
9 | 17 | 18 | Cc1ccnc(N2CCN(CCc3c(CO)n4c5c(cccc35)CCC4)CC2)c1 [Example 16, 5,6-dihydro-2-hydroxymethyl-1-{2-[4-(4-methylpyridin-2-yl)piperazin-1-yl]ethyl}-4H-pyrrolo[3,2,1-ij]quinoline]
10 | 98 | 65 | Cc1ccnc(N2CCN(CCc3c(C)n4c5c(cccc35)CCC4c3ccc(O)cc3)CC2)c1 (centres unmarked) [Example 61]
11 | 62 | 52 | Cc1ccnc(N2CCN(CC(O)c3c(C4CCCCC4)n4c5c(cccc35)CCC4)CC2)c1 (centres unmarked) [Example 85]
12 | 34 | 29 | Cc1ccnc(N2CCN(CCc3c(C)n4c5c(cc(C(=O)C6CCCCC6)cc35)CCC4)CC2)c1 [Example 83]
13 | 29 | 16 | Cc1ccnc(N2CCN(CCc3c(C)n4c5c(cc(N(C)C)cc35)CCC4)CC2)c1 [Example 81]
14 | 61 | 10 | Cc1ccnc(N2CCN(CCc3c(C)n4c5c(cc(C(=O)C(C)C)cc35)CCC4)CC2)c1 [Example 27, 5,6-dihydro-2-methyl-8-(2-methyl-1-oxopropyl)-1-{2-[4-(4-methylpyridin-2-yl)piperazin-1-yl]ethyl}-4H-pyrrolo-[3,2,1-ij]quinoline]
15 | 13 | 32 | Cc1c(CCN2CCN(c3ccccn3)CC2)c2cccc3c2n1CCC3 [Example 37]
16 | 75 | 67 | CCCCC1CCc2cc(O)cc3c(CCN4CCN(c5cc(C)ccn5)CC4)c(C)n1c23 (centres unmarked) [Example 76]

Row | SMILES | inhibition at 10 µM (5-lipoxygenase) [%] | inhibition at 10 µM (cyclooxygenase) [%]
17 | Cc1cc2c3c(c1)c(CCN1CCC(C(=O)c4ccc(F)cc4)CC1)c(C)n3CCC2 [Example 55] | 45 | 41
18 | Cc1ccnc(N2CCN(CCc3c(C)n4c5c(ccc(Cl)c35)OCC4)CC2)c1 [Example 35] | 75 | 51
19 | Cc1ccnc(N2CCN(CCc3c(C)n4c5c(cccc35)CCC4)CC2)c1 [Example 1, 5,6-Dihydro-2-methyl-1-{2-[4-(4-methylpyridin-2-yl)piperazin-1-yl]ethyl}-4H-pyrrolo[3,2,1-ij]quinoline] | 24 | 23
